Experiments:
A3AR [1] = assay: RT-PCR detection of A3AR on human neutrophils; assay type: cell-based; settings: incubated for 15 minutes at 37° C.
Description: Tissue sections (5 μm thick) on slides that, stained by H&E were observed by a pathologist. The neoplastic area and the normal area were detected and each one marked separately. The neoplastic tissue and the normal tissue were collected to different microcentrifuge tubes. The samples were treated with proteinase K at a final concentration of 0.1 mg/ml and incubated at 37° C. for 1 hour to allow for […]. Cells lysate were heated to 95° C. for 15 minutes in order to inactivate DNase and proteinase K. Following centrifugation at 14,000 RPM for 5 minutes, 17 μl of the supernatant was transferred to separate tube and 4 μl of RT mixture. 5 mM dNTPs, 2.5 μM random hexamer, 5 U RNasin, 100 U SuperScript One Step RT-PCR with Platinum Taq (Invitrogene) were added.
The RT reaction was performed at 45° C. for 45 minutes. […]
10×10^6 neutrophil cells isolated from 20 ml of human blood were incubated for 15 minutes with […] of CF101 at 37° C. […] RNA level was quantified using spectrophotometer and […] from each sample were subjected to RT-PCR using SuperScript One Step RT-PCR with Platinum Taq (Invitrogene), as described above in section E., by using the set No II as primers for amplification of 361 bp fragment. RT-PCR products were detected by electrophoresis and the size was verified by comparing with known RNA. […]

A3AR [2] = target: T1, A3AR (Mus musculus, UniProt Q61618); assay: Immunostaining and confocal microscopy of A3AR localization in B16-F10 melanoma cells; assay type: cell-based
T1 construct: endogenous in cells; host or cells: B16-F10 melanoma cells
T1 sequence (Q61618 1-319): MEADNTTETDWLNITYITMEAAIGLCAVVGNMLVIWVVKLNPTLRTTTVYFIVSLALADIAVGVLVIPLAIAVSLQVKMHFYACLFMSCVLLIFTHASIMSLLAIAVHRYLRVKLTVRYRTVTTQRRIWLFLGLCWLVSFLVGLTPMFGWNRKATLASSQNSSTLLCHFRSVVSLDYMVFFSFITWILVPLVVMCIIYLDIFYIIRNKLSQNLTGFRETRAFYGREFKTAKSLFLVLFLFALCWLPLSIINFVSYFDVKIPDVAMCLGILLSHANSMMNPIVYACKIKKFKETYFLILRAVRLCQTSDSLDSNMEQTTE
Description: B16-F10 melanoma cells were grown for 24 hours on cover slips coated with Ploy-L-Lysine (500 μg/ml). Cells were fixed in 4% formaldehyde in phosphate-buffered saline (PBS) for 1 hour at room temperature. The fixed cells were rinsed three times for one min with PBS. To block nonspecific interaction of the antibodies, cells were incubated for 30 minutes in 4% normal goat serum (NGS) in PBS (1% bovine serum albumin (BSA), 0.1% Triton X-100). For the single labeling experiments, cells were then incubated with the primary antibodies against A3AR at a dilution of 1:1000 in PBS (1% BSA, 1% NGS, 0.1% Triton X-100) for 24 hours at 4° C. For the double labeling experiments, antibodies against the A2B adenosine receptor (A2BR) were added at a dilution of 1:1000 to the reaction mixture. After being washed three times for 3 minutes with PBS, cells were incubated with Cy3-conjugated anti-goat IgG for the single labeling experiment, and with both, Fluorescein-conjugated anti-rabbit IgG and Cy3 for the double labeling. Both antibodies were diluted to 1:250 in PBS and incubated in the dark for 2 hours. Cells were rinsed with PBS three more times and mounted with AM 100 (Chemicon, Ca). Stained cells were visualized by Confocal Microscope (Zeiss, Axiovert 100 M, excitation at 553 and emission at 560-615 nm for Cy3, and 492 and 520 nm, respectively, for Fluorescein).
To study receptor localization, confocal laser microscopy was utilized.
To further explore the time course kinetic of A3AR internalization, B16-F10 melanoma cells were exposed for different time periods to IB-MECA and confocal microscopy analysis was carried out. FIG. 2 depicts the gradual internalization rate that occurred within a few minutes, resulting in the disappearance of the fluorescence after 6 minutes. […] This was followed by internalization/externalization after longer incubation time periods (30 and 60 minutes). To confirm the observation that the fluorescence level is decreased as a result of internalization, optical sectioning of the cells was performed (data not shown). […] To show the specificity of A3AR localization, it was compared to that of the A2B adenosine receptor. […] Upon exposure of the cells to IB-MECA, the A2BR was masked by A3AR in the cytoplasm.

SMILES: CNC(=O)[C@H]1O[C@@H](n2cnc3c(NCc4cccc(I)c4)ncnc32)[C@H](O)[C@@H]1O [IB-MECA, 1-deoxy-1-[6[[(3-iodophenyl)methyl]amino]-9H-purine-9-yl]-N-methyl-β-D-ribofura-nuronaminde]
- expression of A3AR (RT-PCR) (A3AR [1]): increase
- time to disappearance of the A3AR fluorescence (internalization) (A3AR [2]; B16-F10 melanoma cells exposed to IB-MECA): 6 min
- A3AR fluorescence level on the cell surface (A3AR [2]; B16-F10 melanoma cells, IB-MECA treated, after 5 minutes): marked decrease
- A3AR localization, optical sectioning (A3AR [2]; B16-F10 melanoma cells, after 15 and 60 minutes' exposure): seen both in the cytoplasm and on the cell surface
- A3AR localization, optical sectioning (A3AR [2]; B16-F10 melanoma cells, exposure for 5 minutes): presented in the cytoplasm
- A3AR localization (A3AR [2]; B16-F10 melanoma cells, prolonged exposure (15 minutes)): receptor externalization to the cell surface

Source: US20040229246A1, “Diagnostic markers for therapeutic treatment” (Can-Fite Biopharam Ltd., priority 2002, published 2004)
